The source of these data is a melting point compilation (Tetko et al.).

One may read the melting point as the temperature of the solid-liquid transition.

For `Cc1cc(=O)c(C(=O)O)nn1-c1ccccc1C(F)(F)F`, the melting point was in the range of 145 to 147 °C.
The same measure for `NC1(C(F)(F)F)CCC(O)CC1` (configuration not stated): 98 to 100 °C.
The same measure for `CC(=O)Nc1cccc(F)c1C(=O)O`: 202 to 204 °C; for `NS(=O)(=O)c1ccc(N2CCNCC2)cc1`: 219 to 221 °C; for `O=C(CO)Nc1ccc(C(F)(F)F)cc1`: 104 to 106 °C.
The result for `NC(=O)Cn1ccc(N)n1` reads 112 to 114 °C; that for `COc1ccccc1-c1ccc(C=O)cc1`, 49 to 51 °C.
Compound `Nc1cccc(C(=O)NCC(F)(F)F)c1` yielded a melting point of 118 to 120 °C.
For `O=C(O)CNC(=O)c1cc(Cl)ccn1`, the melting point lay within 188 to 190 °C.
`Sc1ccc(Sc2ccc(S)cc2)cc1`: the melting point was 112 to 114 °C.
The result for `O=S(=O)(c1ccc(Br)s1)N1CCNCC1` reads 195 to 205 °C.
For `O=C(CCl)N(C1CCCCC1)C1CCS(=O)(=O)C1` (configuration not stated), the melting point was 162 to 164 °C.
Compound `O=C(O)c1cc2c(s1)-c1ccccc1OC2` had a melting point of 236 to 238 °C.
In the case of `COC(=O)c1ccncc1C(=O)OC`, the melting point is 55 to 57 °C.
In turn, `Cn1c(-c2ccccc2)c(C=O)c2ccccc21` returned a melting point of 125 to 127 °C.
The result for `O=C(O)c1cnc2c(cnn2Cc2ccccc2)c1` reads 210 to 212 °C; that for `Cc1cccc2c(O)c(C(=O)O)cnc12`, 281 to 283 °C.
The same measure for `CCc1cccnc1N`: 38 to 40 °C.
The same measure for `Cc1csc2ccc(Cl)cc2c1=O`: 109 to 111 °C; for `Cc1cc(C(=O)O)cc([N+](=O)[O-])c1`: 169 to 171 °C; for `CC(=O)c1ccc(O)c(CN2CCOCC2)c1`: 70 to 72 °C.
For `CCN(C(C)=O)C(C(=O)O)c1ccc(F)c(F)c1` (configuration not stated), the melting point lay in the range of 205 to 207 °C.
In the case of `Cc1cc(F)c([N+](=O)[O-])cc1S(=O)(=O)Cl`, the melting point was in the range of 66 to 68 °C.
`O=C(O)C1CCCN(c2ncnc3sccc23)C1` (configuration not stated): the melting point fell in the range of 214 to 216 °C.
The result for `Cc1nc(-c2ccccc2Br)sc1C(C)O` (configuration not stated) reads 79 to 81 °C; that for `COC(=O)c1ccc(Cl)nc1Cl`, 56 to 58 °C.
Take `CS(=O)(=O)c1ccc(N)c(N)c1`: the melting point fell in the range of 125 to 127 °C.
Compound `COc1ccc(S(=O)(=O)Cl)c(Cl)c1Cl` yielded a melting point of 92 to 94 °C.
For the compound `NNc1ccc(S(=O)(=O)NCc2ccco2)cn1`, the melting point was in the range of 144 to 146 °C.
The same measure for `CN(C)S(=O)(=O)c1cc(C(=O)O)ccc1Br`: 257 to 259 °C; for `CCOC(=O)c1cc2cc(C(=O)O)ccc2[nH]1`: 247 to 249 °C; for `CC(C)C(C(=O)O)c1cccc(Cl)c1` (configuration not stated): 82 to 84 °C.
The result for `COc1ccc(C(N)Cc2ccccc2C)cc1OC` (configuration not stated) reads 49 to 51 °C; that for `O=S(=O)(F)c1ccc2cn[nH]c2c1`, 219 to 221 °C; that for `O=C(O)c1cccc(OCC2CCCO2)c1` (configuration not stated), 86 to 88 °C.
The same measure for `COc1ccc(CNS(=O)(=O)CC#N)cc1OC`: 126 to 128 °C; for `NS(=O)(=O)CCN1C(=O)c2ccccc2C1=O`: 209 to 211 °C.
`c1ccc(CNc2cccnc2)nc1` displayed a melting point of 50 to 52 °C.
`N#CCCSc1ccccc1N` registered a melting point of 45 to 47 °C.
The result for `O=C(O)CCC(=O)c1ccc(I)cc1` reads 175 to 177 °C; that for `NS(=O)(=O)c1nc2ccccc2[nH]1`, 215 to 217 °C.
The result for `O=c1[nH]cnc2nc(NCc3ccco3)sc12` reads 279 to 281 °C; that for `c1ccc(COc2ccc3cn[nH]c3c2)cc1`, 166 to 168 °C; that for `O=C(CCl)N1CCOC2CCCCC21` (configuration not stated), 67 to 69 °C.
The result for `NNC(=O)c1ccc(NS(=O)(=O)c2cccs2)cc1` reads 178 to 180 °C; that for `Cc1cc(Br)ccc1N1CC(C(=O)O)CC1=O` (configuration not stated), 81 to 83 °C.
Regarding `COCCOc1ccc(C#N)cn1`, the melting point is 39 to 41 °C.
As for `Cc1ccc(OC2CCNCC2)cc1`, the melting point was 44 to 46 °C.
`O=C1NCCNC1c1cccs1` (configuration not stated) returned a melting point of 111 to 113 °C.
The same measure for `O=C(O)C1COc2ccc(Cl)cc2C1` (configuration not stated): 85 to 87 °C.
The same measure for `Nc1nc(CN2CCCCC2)cs1`: 153 to 155 °C; for `CCNc1ccc(S(=O)(=O)N(C)C)cc1N`: 161 to 163 °C; for `COc1ccc(C(CN)c2c[nH]c3ccccc23)cc1` (configuration not stated): 127 to 129 °C.
The result for `O=C(O)Cn1[nH]c(=O)c2ccccc2c1=O` reads 272 to 274 °C; that for `NNC(=O)COc1ccccc1O`, 152 to 154 °C.
`O=C(COc1ccccc1C(=O)O)Nc1ccccc1F` gave a melting point of 197 to 199 °C.
The result for `Cc1ccc(C(=O)C(O)c2ccc(C)cc2)cc1` (configuration not stated) reads 88 to 90 °C; that for `O=C1CNc2ccncc2N1`, 259 to 261 °C.
The result for `O=C(O)c1cnc(Cl)nc1Cl` reads 96 to 98 °C; that for `CC(C)(C)c1nnc(S)n1N`, 185 to 189 °C; that for `O=C(O)C(Sc1ccccc1Cl)c1ccccc1` (configuration not stated), 116 to 118 °C.
`CCOc1ccc(C=C(C(=O)O)c2cccs2)cc1`: the melting point was 133 to 135 °C.
`O=C(O)CN1CSCC1=O`: the melting point was 171 to 173 °C.
`O=C(O)c1sccc1S(=O)(=O)N1CCSCC1` registered a melting point of 144 to 146 °C.
Take `COc1cccc(COCC(N)=NO)c1`: the melting point lay within 59 to 61 °C.
The same measure for `Sc1nnc(N2CCOCC2)s1`: 179 to 181 °C; for `O=C(CCCl)Nc1cccc([N+](=O)[O-])c1`: 75 to 77 °C.
The compound `NNC(=S)Nc1cccnc1` showed a melting point of 174 to 176 °C.
The same measure for `O=C(O)CCS(=O)(=O)Cc1cccc(Br)c1`: 156 to 158 °C; for `CS(=O)(=O)c1ccc(Br)c(C(=O)O)c1`: 203 to 205 °C.
Consider `Cn1c(C(=O)O)cc2cc(C(F)(F)F)ccc21`, for which the melting point was 199 to 201 °C.
Compound `CC(C)C(Br)C(=O)NC1CCCC1` (configuration not stated) returned a melting point of 99 to 101 °C.
For the compound `Cc1cc(N2CCOCC2)ccc1N`, the melting point is 89 to 91 °C.
As to `OCc1cn(-c2cccc(Cl)c2Cl)nn1`, the melting point is 105 to 107 °C.
The result for `O=C(C1OCCc2ccccc21)N1CCCC1` (configuration not stated) reads 109 to 111 °C; that for `O=C1COc2ccc(Cl)cc2N1`, 211 to 213 °C.
The same measure for `CC(O)Cc1ccc2ccccc2n1` (configuration not stated): 64 to 66 °C; for `CCOC(=O)C1=NN(c2ccccc2)C(C#N)C1` (configuration not stated): 99 to 101 °C.
As to `NC(=O)NCc1ccc(S(N)(=O)=O)cc1`, the melting point was in the range of 175 to 177 °C.
The result for `Cc1ccc(NS(=O)(=O)c2ccc(Cl)c(C(=O)O)c2)cc1C` reads 207 to 209 °C; that for `CN(C)S(=O)(=O)c1cccc(C#N)c1`, 128 to 130 °C.
The result for `Cn1c(=O)n(CC(=O)O)c2ccccc21` reads 202 to 204 °C; that for `O=C(O)c1ccnc(OCC(F)(F)F)c1`, 109 to 111 °C.
The same measure for `CC1(c2ccc(O)cc2)NC(=O)NC1=O` (configuration not stated): 240 to 242 °C; for `O=C(O)Cn1nc(-c2ccc(F)cc2)oc1=O`: 110 to 112 °C.
On to `O=Cc1cc(O)c(O)c(Br)c1`, for which the melting point is 219 to 221 °C.
The same measure for `CCOC(=O)COc1ccc(C(C)=O)cc1`: 52 to 54 °C.
